Test results from patent publication US20070049564A1 (Wyeth, priority 2005, published 2007).
≈ marks a conversion by molar mass, not a printed value. Like-named read-outs stand apart in the source and are kept apart here.

Tests used:
E. faecalis GC 2267 = test: MIC, broth microdilution; settings: Enterococcus faecalis
E. coli GC 2235 = test: MIC, broth microdilution; settings: Escherichia coli
E. coli GC 2272 = test: MIC, broth microdilution; settings: Escherichia coli
E. coli GC 1073 = test: MIC, broth microdilution; settings: Escherichia coli
E. coli GC 6465 = test: MIC, broth microdilution; settings: Escherichia coli
c. albicans GC 3066 = test: MIC, broth microdilution
S. typhimurium GC 2172 = test: MIC, broth microdilution; settings: Salmonella enterica, TYPHIMURIUM
S. aureus GC 1131 = test: MIC, broth microdilution; settings: Staphylococcus aureus
S. aureus GC 1079 = test: MIC, broth microdilution; settings: Staphylococcus aureus
E. coli GC 4559 = test: MIC, broth microdilution; settings: Escherichia coli
E. coli GC 4560 = test: MIC, broth microdilution; settings: Escherichia coli
Staph. aureus Smith = test: In vivo activity (oral, iv; ED50) against Staph. aureus Smith in mice
S. epidermidis GC 4935 = test: MIC, broth microdilution; settings: Staphylococcus epidermidis
S. pneumoniae* GC 4465 = test: MIC, broth microdilution; settings: Streptococcus pneumoniae
S. aureus GC 6467 = test: MIC, broth microdilution; settings: Staphylococcus aureus
E. faecalis GC 2242 = test: MIC, broth microdilution; settings: Enterococcus faecalis
S. agalactiae GC 4564 = test: MIC, broth microdilution; settings: Streptococcus agalactiae
S. pneumoniae+ GC 4465 = test: MIC, broth microdilution; settings: Streptococcus pneumoniae
E. faecalis GC 4555 = test: MIC, broth microdilution; settings: Enterococcus faecalis
S. aureus GC 4536 = test: MIC, broth microdilution; settings: Staphylococcus aureus
[1] = read-out: MINIMAL INHIBITORY CONCENTRATION MIC, pre-incubated in Human Serum
[2] = read-out: MINIMAL INHIBITORY CONCENTRATION MIC, pre-incubated in Mouse Serum
[3] = read-out: MINIMAL INHIBITORY CONCENTRATION MIC, pre-incubated in Water

MIC (E. faecalis GC 2267; GC2267, read-out: MINIMAL INHIBITORY CONCENTRATION MIC, pre-incubated in Human Serum): 4 µg/mL (≈ 5.28 µM)
MIC (E. faecalis GC 2267; GC2267, read-out: MINIMAL INHIBITORY CONCENTRATION MIC, pre-incubated in Mouse Serum): 2 µg/mL (≈ 2.64 µM)
MIC (E. faecalis GC 2267; GC2267, read-out: MINIMAL INHIBITORY CONCENTRATION MIC, pre-incubated in Water): 4 µg/mL (≈ 5.28 µM)
MIC (E. coli GC 2235; GC2235, read-out: MINIMAL INHIBITORY CONCENTRATION MIC, pre-incubated in Human Serum): > 64 µg/mL
MIC (E. coli GC 2235; GC2235, read-out: MINIMAL INHIBITORY CONCENTRATION MIC, pre-incubated in Mouse Serum): 2 µg/mL (≈ 2.64 µM)
MIC (E. coli GC 2235; GC2235, read-out: MINIMAL INHIBITORY CONCENTRATION MIC, pre-incubated in Water): > 64 µg/mL
MIC (E. coli GC 2272; GC2272, read-out: MINIMAL INHIBITORY CONCENTRATION MIC, pre-incubated in Human Serum): > 64 µg/mL
MIC (E. coli GC 2272; GC2272, read-out: MINIMAL INHIBITORY CONCENTRATION MIC, pre-incubated in Mouse Serum): 2 µg/mL (≈ 2.64 µM)
MIC (E. coli GC 2272; GC2272, read-out: MINIMAL INHIBITORY CONCENTRATION MIC, pre-incubated in Water): > 64 µg/mL
MIC (E. coli GC 1073; GC1073, read-out: MINIMAL INHIBITORY CONCENTRATION MIC, pre-incubated in Human Serum): > 64 µg/mL
MIC (E. coli GC 1073; GC1073, read-out: MINIMAL INHIBITORY CONCENTRATION MIC, pre-incubated in Mouse Serum): 4 µg/mL (≈ 5.28 µM)
MIC (E. coli GC 1073; GC1073, read-out: MINIMAL INHIBITORY CONCENTRATION MIC, pre-incubated in Water): > 64 µg/mL
MIC (E. coli GC 6465; GC6465, read-out: MINIMAL INHIBITORY CONCENTRATION MIC, pre-incubated in Human Serum): > 64 µg/mL
MIC (E. coli GC 6465; GC6465, read-out: MINIMAL INHIBITORY CONCENTRATION MIC, pre-incubated in Mouse Serum): 8 µg/mL (≈ 10.6 µM)
MIC (E. coli GC 6465; GC6465, read-out: MINIMAL INHIBITORY CONCENTRATION MIC, pre-incubated in Water): > 64 µg/mL
MIC (c. albicans GC 3066; Candida albicans, GC3066, read-out: MINIMAL INHIBITORY CONCENTRATION MIC): > 64 µg/mL
MINIMAL INHIBITORY CONCENTRATION MIC (c. albicans GC 3066; pre-incubated in Human Serum): >64 UG/ML
MINIMAL INHIBITORY CONCENTRATION MIC (c. albicans GC 3066; pre-incubated in Mouse Serum): >64 UG/ML
MIC (S. typhimurium GC 2172; [1]): > 64 µg/mL
MIC (S. typhimurium GC 2172; [2]): 8 µg/mL (≈ 10.6 µM)
MIC (S. typhimurium GC 2172; [3]): > 64 µg/mL
MIC (S. aureus GC 1131; GC1131, read-out: MINIMAL INHIBITORY CONCENTRATION MIC, pre-incubated in Human Serum): 2 µg/mL (≈ 2.64 µM)
MIC (S. aureus GC 1131; GC1131, read-out: MINIMAL INHIBITORY CONCENTRATION MIC, pre-incubated in Mouse Serum): 2 µg/mL (≈ 2.64 µM)
MIC (S. aureus GC 1131; GC1131, read-out: MINIMAL INHIBITORY CONCENTRATION MIC, pre-incubated in Water): 4 µg/mL (≈ 5.28 µM)
MIC (S. aureus GC 1079; GC1079, read-out: MINIMAL INHIBITORY CONCENTRATION MIC, pre-incubated in Human Serum): 2 µg/mL (≈ 2.64 µM)
MIC (S. aureus GC 1079; GC1079, read-out: MINIMAL INHIBITORY CONCENTRATION MIC, pre-incubated in Mouse Serum): 2 µg/mL (≈ 2.64 µM)
MIC (S. aureus GC 1079; GC1079, read-out: MINIMAL INHIBITORY CONCENTRATION MIC, pre-incubated in Water): 4 µg/mL (≈ 5.28 µM)
MIC (E. coli GC 4559; GC4559, read-out: MINIMAL INHIBITORY CONCENTRATION MIC, pre-incubated in Human Serum): > 64 µg/mL
MIC (E. coli GC 4559; GC4559, read-out: MINIMAL INHIBITORY CONCENTRATION MIC, pre-incubated in Mouse Serum): 4 µg/mL (≈ 5.28 µM)
MIC (E. coli GC 4559; GC4559, read-out: MINIMAL INHIBITORY CONCENTRATION MIC, pre-incubated in Water): > 64 µg/mL
MIC (E. coli GC 4560; GC4560, read-out: MINIMAL INHIBITORY CONCENTRATION MIC, pre-incubated in Human Serum): 4 µg/mL (≈ 5.28 µM)
MIC (E. coli GC 4560; GC4560, read-out: MINIMAL INHIBITORY CONCENTRATION MIC, pre-incubated in Mouse Serum): 2 µg/mL (≈ 2.64 µM)
MIC (E. coli GC 4560; GC4560, read-out: MINIMAL INHIBITORY CONCENTRATION MIC, pre-incubated in Water): 4 µg/mL (≈ 5.28 µM)
MIC (S. epidermidis GC 4935; GC4935, read-out: MINIMAL INHIBITORY CONCENTRATION MIC, pre-incubated in Human Serum): 4 µg/mL (≈ 5.28 µM)
MIC (S. epidermidis GC 4935; GC4935, read-out: MINIMAL INHIBITORY CONCENTRATION MIC, pre-incubated in Mouse Serum): 2 µg/mL (≈ 2.64 µM)
MIC (S. epidermidis GC 4935; GC4935, read-out: MINIMAL INHIBITORY CONCENTRATION MIC, pre-incubated in Water): 4 µg/mL (≈ 5.28 µM)
MIC (S. pneumoniae* GC 4465; [1]): 2 µg/mL (≈ 2.64 µM)
MIC (S. pneumoniae* GC 4465; [2]): 1 µg/mL (≈ 1.32 µM)
MIC (S. pneumoniae* GC 4465; [3]): 2 µg/mL (≈ 2.64 µM)
MIC (S. aureus GC 6467; GC6467, read-out: MINIMAL INHIBITORY CONCENTRATION MIC, pre-incubated in Human Serum): 2 µg/mL (≈ 2.64 µM)
MIC (S. aureus GC 6467; GC6467, read-out: MINIMAL INHIBITORY CONCENTRATION MIC, pre-incubated in Mouse Serum): 2 µg/mL (≈ 2.64 µM)
MIC (S. aureus GC 6467; GC6467, read-out: MINIMAL INHIBITORY CONCENTRATION MIC, pre-incubated in Water): 4 µg/mL (≈ 5.28 µM)
MIC (E. faecalis GC 2242; GC2242, read-out: MINIMAL INHIBITORY CONCENTRATION MIC, pre-incubated in Human Serum): 4 µg/mL (≈ 5.28 µM)
MIC (E. faecalis GC 2242; GC2242, read-out: MINIMAL INHIBITORY CONCENTRATION MIC, pre-incubated in Mouse Serum): 2 µg/mL (≈ 2.64 µM)
MIC (E. faecalis GC 2242; GC2242, read-out: MINIMAL INHIBITORY CONCENTRATION MIC, pre-incubated in Water): 4 µg/mL (≈ 5.28 µM)
MIC (S. agalactiae GC 4564; GC4564, read-out: MINIMAL INHIBITORY CONCENTRATION MIC, pre-incubated in Human Serum): 4 µg/mL (≈ 5.28 µM)
MIC (S. agalactiae GC 4564; GC4564, read-out: MINIMAL INHIBITORY CONCENTRATION MIC, pre-incubated in Mouse Serum): 1 µg/mL (≈ 1.32 µM)
MIC (S. agalactiae GC 4564; GC4564, read-out: MINIMAL INHIBITORY CONCENTRATION MIC, pre-incubated in Water): 4 µg/mL (≈ 5.28 µM)
MIC (S. pneumoniae+ GC 4465; [1]): 4 µg/mL (≈ 5.28 µM)
MIC (S. pneumoniae+ GC 4465; [2]): 4 µg/mL (≈ 5.28 µM)
MIC (S. pneumoniae+ GC 4465; [3]): 4 µg/mL (≈ 5.28 µM)
MIC (E. faecalis GC 4555; GC4555, read-out: MINIMAL INHIBITORY CONCENTRATION MIC, pre-incubated in Human Serum): 4 µg/mL (≈ 5.28 µM)
MIC (E. faecalis GC 4555; GC4555, read-out: MINIMAL INHIBITORY CONCENTRATION MIC, pre-incubated in Mouse Serum): 2 µg/mL (≈ 2.64 µM)
MIC (E. faecalis GC 4555; GC4555, read-out: MINIMAL INHIBITORY CONCENTRATION MIC, pre-incubated in Water): 4 µg/mL (≈ 5.28 µM)
MIC (S. aureus GC 4536; GC4536, read-out: MINIMAL INHIBITORY CONCENTRATION MIC, pre-incubated in Human Serum): 2 µg/mL (≈ 2.64 µM)
MIC (S. aureus GC 4536; GC4536, read-out: MINIMAL INHIBITORY CONCENTRATION MIC, pre-incubated in Mouse Serum): 2 µg/mL (≈ 2.64 µM)
MIC (S. aureus GC 4536; GC4536, read-out: MINIMAL INHIBITORY CONCENTRATION MIC, pre-incubated in Water): 4 µg/mL (≈ 5.28 µM)
SMILES: CCC(C)(C)C(=O)OCOC(=O)N(CC(=O)Nc1cc(N(C)C)c2c(c1O)C(=O)C1=C(O)[C@]3(O)C(=O)C(C(N)=O)=C(O)[C@@H](N(C)C)[C@@H]3C[C@@H]1C2)C(C)(C)C [Example 44, ({[(2-{[(5aR,6aS,7S,10aS)-9-(aminocarbonyl)-4,7-bis(dimethylamino)-1,8,10a,11-tetrahydroxy-10,12-dioxo-5,5a,6,6a,7,10,10a,12-octahydrotetracen-2-yl]amino}-2-oxoethyl)(tert-butyl)amino]carbonyl}oxy)methyl 2,2-dimethylbutanoate]
ED50 (Staph. aureus Smith; Staphylococcus aureus, in Mus musculus, iv, read-out: ED50 SIV (Staph aureus Smith)): 0.75 mg/kg
ED50 (Staph. aureus Smith; Staphylococcus aureus, in Mus musculus, po, read-out: ED50 SOD (Staph aureus Smith)): 4 mg/kg
ED50 (Staph. aureus Smith; Staphylococcus aureus, in Mus musculus, po, read-out: ED50 Staph Smith SOD): 4 mg/kg
ED50 (Staph. aureus Smith; iv, read-out: ED50 Staph Smith SIV): 0.75 mg/kg
